From ChEMBL document CHEMBL5376003, “Structure-Activity Relationship of FL118 Platform Position 7 Versus Position 9-Derived Compounds and Their Mechanism of Action and Antitumor Activity” (J Med Chem, 2023)
The source made the active and inactive calls. The calls are words filed in the database; no cut-off is given here.

Experiments:
[1] = Toxicity in SCID mouse xenografted with human PDX27454 cells assessed as animal death at 10 mg/kg,ip administrated once per week for 4 weeks; type: organism-based; conditions: in vivo, 672 h
[2] = test system: PDX27454; experiment: Antitumor activity against human PDX27454 cells xenografted in SCID mouse model assessed as reduction in tumor growth at 3 to 7 mg/kg,po administrated once per week for 4 weeks; type: functional, organism-based; conditions: dose 3-7 mg/kg
[3] = test system: PDX27454; experiment: Antitumor activity against human PDX27454 cells xenografted in SCID mouse model assessed as reduction in tumor growth at 2.5 to 10 mg/kg,ip administrated once per week for 4 weeks; type: functional, organism-based; conditions: dose 2.5-10 mg/kg
[4] = Toxicity in SCID mouse xenografted with human PDX27454 cells assessed as body weight loss at 3 to 5 mg/kg,po administrated once per week for 4 weeks; type: organism-based; conditions: in vivo, 672 h, dose 3-5 mg/kg
[5] = Toxicity in SCID mouse xenografted with human PDX27454 cells assessed as body weight loss at 2.5 to 5 mg/kg,ip administrated once per week for 4 weeks; type: organism-based; conditions: in vivo, 672 h, dose 2.5-5 mg/kg
[6] = test system: HCT-116; experiment: Induction of apoptosis in human HCT-116 cells assessed as downregulation of ADK gene expression at 10 to 500 nM incubated for 6 to 48 hrs by RNA analysis; type: functional, cell-based; conditions: dose 10-500 nM, time 6-48 hrs
[7] = test system: HCT-116; experiment: Induction of apoptosis in human HCT-116 cells assessed as downregulation of DHODH gene expression at 10 to 500 nM incubated for 6 to 48 hrs by RNA analysis; type: functional, cell-based; conditions: dose 10-500 nM, time 6-48 hrs
[8] = test system: PDX27454; experiment: Antitumor activity against human PDX27454 cells xenografted in SCID mouse model assessed as reduction in tumor growth at 10 mg/kg,po administrated once per week for 4 weeks; type: functional, organism-based
[9] = Toxicity in SCID mouse xenografted with human PDX27454 cells assessed as body weight loss at 10 mg/kg,po administrated once per week for 4 weeks; type: organism-based; conditions: in vivo, 672 h
[10] = Toxicity in SCID mouse xenografted with human PDX27454 cells assessed as body weight loss at 10 mg/kg,ip administrated once per week for 4 weeks; type: organism-based; conditions: in vivo, 672 h
[11] = test system: HCT-116; experiment: Induction of apoptosis in human HCT-116 cells assessed as upregulation of cytochrome-C protein expression incubated for 48 hrs by Western blotting analysis; type: functional, cell-based
[12] = test system: HCT-116; experiment: Induction of apoptosis in human HCT-116 cells assessed as increase in caspase-3 activity incubated for 48 hrs by BCA protein assay; type: functional, cell-based
[13] = test system: HCT-116; experiment: Induction of apoptosis in human HCT-116 cells assessed as increase in caspase-9 activity incubated for 48 hrs by BCA protein assay; type: functional, cell-based
[14] = test system: PDX27454; experiment: Antitumor activity against human PDX27454 cells xenografted in SCID mouse model assessed as reduction in tumor growth at 5 to 15 mg/kg,ip administrated once per week for 4 weeks; type: functional, organism-based; conditions: dose 5-15 mg/kg

Which results are given for `CC[C@@]1(O)C(=O)OCc2c1cc1n(c2=O)Cc2c-1nc1cc3c(cc1c2-c1ccc(OC)cc1)OCO3`?
Activity [1]: Toxic; Activity [2]: Active; Activity [3]: Active; Activity [4]: Toxic; Activity [5]: Toxic

For `CC[C@@]1(O)C(=O)OCc2c1cc1n(c2=O)Cc2cc3cc4c(cc3nc2-1)OCO4`, which Activity [6] is on record?
The Activity was “Active”.

What about the Activity [7] of the same compound?
Its Activity is “Active”.

For `CCc1ccc(-c2c3c(nc4cc5c(cc24)OCO5)-c2cc4c(c(=O)n2C3)COC(=O)[C@]4(O)CC)cc1`, which Activity [8] is on record?
Its Activity is “Active”.

What about the Activity [9] of the same compound?
The Activity was “Toxic”.

And the Activity [10]?
Its Activity is “Non-Toxic”.

With `CC[C@@]1(O)C(=O)OCc2c1cc1n(c2=O)Cc2c-1nc1cc3c(cc1c2-c1cc(OC)cc(OC)c1)OCO3` as the compound, how does the Activity [11] read?
The Activity was “Dose-Dependent Effect”.

What about the Activity [12] of the same compound?
The Activity was “Dose-Dependent Effect”.

What about the Activity [13] of the same compound?
The Activity was “Dose-Dependent Effect”.

And the Activity [14]?
Its Activity is “Active”.
